Reference: paper PMC5855875, “Teixobactin analogues reveal enduracididine to be non-essential for highly potent antibacterial activity and lipid II binding” (Chemical Science, 2017)
≈ marks a conversion by molar mass, not a printed value. Bridge positions count the residues as written; N and C are the ends. Square brackets hold non-standard residues; d marks the D form. Peptide text beside a SMILES is read from it. d(aIle) = CC[C@H](C)[C@@H](N)C(=O)O; dNMeF = CN[C@H](Cc1ccccc1)C(=O)O

Columns and labels:
MRSA ATCC 33591 = assay: microbe, parasite or virus in culture; details: ATCC 33591, 24 h
MRSA 1: MRSA ATCC 700699 = assay: microbe, parasite or virus in culture
[1] = system: MRSA 3: MRSA DM21455 (eye); assay: microbe, parasite or virus in culture
[2] = system: Staphylococcus aureus ATCC 29213; assay: microbe, parasite or virus in culture
[3] = system: MRSA 2: MRSA DR 42412 (sputum); assay: microbe, parasite or virus in culture
VRE 1: VRE ATCC 700802 = assay: organism not typed
VRE 2: VRE ATCC 29212 = assay: organism not typed
M. smegmatis ATCC 607 = assay: microbe, parasite or virus in culture; details: ATCC 607, 72 h
Description: were grown in Mueller Hinton broth (Oxoid) in triplicate. All incubations were at 37°C. Dilutions were carried out in triplicate. 100 µl of autoclaved Mueller Hinton broth was added to wells 2-12 in a 96-well plate. 200 µl of the peptide was added to well one at a concentration of 256 µg/mL. 100µl of peptide in well one was taken up and pipetted into well two. The mixture was then mixed via pipetting before 100µl was taken up and pipetted into well three. This process was repeated up to well 11. Once […]
peptide present. Thus, the concentrations (in µg/mL) were: 256, 128, 64, 32, 16, 8, 4, 2, 1, 0.5, 0.25 and no peptide present. Each well was then inoculated with 100µl of bacteria that had been diluted to an […]
This was repeated three times. The 96-well plates were then incubated at 37°C for 24 hours. The MIC was determined to be the lowest concentration at which there was no growth visible. […]
was repeated at an altered initial concentration of 64 µg/ml. Therefore, the new concentrations for MIC […]
Middlebrook 7H9 broth (SIGMA) supplemented to 5% Middlebrook ADC (SIGMA) growth

[4] = Lipid II TLC binding assay; details: peptide : lipid II 2 : 1; 50 mM Tris/HCl, pH 7.5, 30 min, room temperature; three independent experiments
Description: X. Complex formation of teixobactin with lipid II and geranyl pyrophosphate Complex formation of teixobactin analogues 8 (Ala10-teixobactin) and 16 (Arg10-teixobactin) with lipid II and geranyl pyrophosphate was performed using TLC as described previously.7 Binding of teixobactin to lipid II and geranyl pyrophosphate was analysed by incubating 30 µL of 2 nmol of each precursor with 2 or 4 nmoles of teixobactin in 50 mM Tris/HCl, pH 7.5, for 30 min at room temperature. Complex formation was analysed by extracting unbound precursors from the reaction mixture with 30 µL n- butanol/6M pyridine acetate (pH 4.2) (2:1; vol/vol) followed by TLC analysis of the organic layer using chloroform/methanol/water/ammonia (88:48:10:1, v/v/v/v) as the solvent and detection of lipid/phosphate containing precursors by phosphomolybdic acid staining. The TLC figures represent the results obtained through thr ee independent experiments.
Figure S76 : Binding of teixobactin analogues 8 (Ala10-teixobactin ) and 16 (Arg10-teixobactin) with lipid II using the protocols described in literature .7 Partial binding is observed when the ratio of lipid II to the analogue is 1:1 (indicated by lighter spots on the TLC) and complete binding is observed when the ratio of lipid II to the analogue is 1:2 in case of analogue 16 and 1:4 in case of analogue 8 (indicated […]
(also on this page, place not known: polyso rbate vancomycin , concentr ation 80 . wer e µ l (10 1-105 10 10 previously n - TL C three S76: (Ala10-teixobactin) literature.7 Lipid II Lipid II: Compound 8 = 1:1 Lipid II: Compound 16 = 1:1 Lipid II: Compound 8 = 1:2 Lipid II: Compound 16 = 1:2 Lipid II: Compound 8 = 1:4)

[5] = NMR titration with geranyl pyrophosphate (lipid II mimic); type: binding
Description: In order to evaluate target binding, we have performed the lipid II TLC binding assay[2] with Ala10-teixobactin. This assay provides qualitative binding data of Ala10-teixobactin with lipid II. […] Therefore, in order better understand the target binding of teixobactin analogues in a quantitative manner, extensive NMR studies (Fig. 6) on Ala10-teixobactin and geranyl pyrophosphate were performed.
This can occur due to intermediate exchange on the NMR time-scale, and therefore cooperative binding is not an obvious choice.

[6] = 1H DOSY at each titration point

Structure (SMILES): CC[C@H](C)[C@H](NC(=O)[C@@H](Cc1ccccc1)NC)C(=O)N[C@@H](CO)C(=O)N[C@H](CCC(N)=O)C(=O)N[C@@H](C(=O)N[C@H](C(=O)N[C@@H](CO)C(=O)N[C@H]1C(=O)N[C@@H](C)C(=O)N[C@@H](C)C(=O)N[C@@H]([C@@H](C)CC)C(=O)O[C@H]1C)[C@@H](C)CC)[C@@H](C)CC [Compound 8, Ala10-teixobactin] (H-[dNMeF]IS[dQ][d(aIle)]IS[dT]AAI; ester 8-C)
- MIC (MRSA ATCC 33591): 1–2 μg mL^–1
- MIC (MRSA 1: MRSA ATCC 700699; ATCC 700699, 24 h): 4 μg mL^–1
- MIC (without polysorbate 80) (MRSA 1: MRSA ATCC 700699; ATCC 700699, 24 h): 8 µg/mL (≈ 6.9 µM)
- MBC (MRSA 1: MRSA ATCC 700699; MRSA 1 (MRSA ATCC 700699), plated on MHA, 37 °C, 24 h): 16 μg mL^–1
- MIC (with polysorbate 80) (MRSA 1: MRSA ATCC 700699; MRSA 1, MHB containing polysorbate 80 (0.002%, v/v), 37 °C, 24 h, two independent duplicates): 4 µg/mL (≈ 3.45 µM)
- MIC ([1]; 3: DM21455 (eye, 24 h)): 1 μg mL^–1
- MIC (without polysorbate 80) ([1]; 3: DM21455 (eye, 24 h)): 4 µg/mL (≈ 3.45 µM)
- MBC ([1]; MRSA 3 (MRSA DM21455), plated on MHA, 37 °C, 24 h): 2 μg mL^–1
- MIC (with polysorbate 80) ([1]; MRSA 3, MHB containing polysorbate 80 (0.002%, v/v), 37 °C, 24 h): 1 µg/mL (≈ 0.863 µM)
- MIC (without polysorbate 80) ([2]; ATCC 29213, 24 h): 4 µg/mL (≈ 3.45 µM)
- MIC (with polysorbate 80) ([2]; S. aureus ATCC 29213, MHB containing polysorbate 80 (0.002%, v/v), 37 °C, 24 h): 1 µg/mL (≈ 0.863 µM)
- MBC ([2]; Staphylococcus aureus ATCC 29213, plated on MHA, 37 °C, 24 h): 2 μg mL^–1
- MIC ([3]; 2: DR 42412 (sputum, 24 h)): 1 μg mL^–1
- MIC (without polysorbate 80) ([3]; 2: DR 42412 (sputum, 24 h)): 4 µg/mL (≈ 3.45 µM)
- MBC ([3]; MRSA 2 (MRSA DR 42412), plated on MHA, 37 °C, 24 h): 4 μg mL^–1
- MIC (with polysorbate 80) ([3]; MRSA 2, MHB containing polysorbate 80 (0.002%, v/v), 37 °C, 24 h): 1 µg/mL (≈ 0.863 µM)
- MIC (VRE 1: VRE ATCC 700802; ATCC 700802, 24 h): 4 μg mL^–1
- MIC (without polysorbate 80) (VRE 1: VRE ATCC 700802; ATCC 700802, 24 h): 8 µg/mL (≈ 6.9 µM)
- MIC (with polysorbate 80) (VRE 1: VRE ATCC 700802; VRE 1, MHB containing polysorbate 80 (0.002%, v/v), 37 °C, 24 h): 4 µg/mL (≈ 3.45 µM)
- MIC (VRE 2: VRE ATCC 29212; ATCC 29212, 24 h): 4 μg mL^–1
- MIC (without polysorbate 80) (VRE 2: VRE ATCC 29212; ATCC 29212, 24 h): 8 µg/mL (≈ 6.9 µM)
- MIC (with polysorbate 80) (VRE 2: VRE ATCC 29212; VRE 2, MHB containing polysorbate 80 (0.002%, v/v), 37 °C, 24 h): 4 µg/mL (≈ 3.45 µM)
- MIC (M. smegmatis ATCC 607): 1–2 μg mL^–1
- lipid II spot on TLC [4]: a small amount of lipid II was still visible on TLC
- Kd ([5]; 2 Ile Hα, NMR titration of geranyl pyrophosphate): 348 ± 18 µM
- Kd ([5]; 3 Ser Hα, NMR titration of geranyl pyrophosphate): 503 ± 8 µM
- Kd ([5]; 4 D-Gln Hα, NMR titration of geranyl pyrophosphate): 507 ± 2 µM
- Kd ([5]; 5 D-Ile Hα, NMR titration of geranyl pyrophosphate): 483 ± 4 µM
- Kd ([5]; 7 Ser Hα, NMR titration of geranyl pyrophosphate): 125 ± 3 µM
- Kd ([5]; 8 D-Thr Hα, NMR titration of geranyl pyrophosphate): 204 ± 3 µM
- Kd ([5]; 9 Ala Hα, NMR titration of geranyl pyrophosphate): 394 ± 4 µM
- Kd ([5]; 10 Ala Hα, NMR titration of geranyl pyrophosphate): 314 ± 3 µM
- Kd ([5]; 11 Ile Hα, NMR titration of geranyl pyrophosphate): 391 ± 4 µM
- Kd ([5]; Net (Total), overall binding by PCA): 138 ± 5 µM
- aggregation in presence of geranyl pyrophosphate (diffusion coefficient) [6]: no aggregation occurred
